The values below come from US6710075B2, “Therapeutic compounds and methods” (The Government of the State of Sarawak, Malaysia, priority 2000, dated 2004).

Data set [1] deals with THP-1 cells. Kind of data set: Protein synthesis, [14C]-leucine uptake, THP-1 cells. The data set is classed as cell-based, human. Particulars: 48 hours. The text has this: (§1) (a) Compounds A and B were identified from a bark sample of Aglaia leptantha through their ability to inhibit production of Tumour Necrosis Factor-α (TNF-α) by THP-1 human promonocytic leukemia cells (Tsuchiya, et al, Int. J. Cancer, 1980, 26(2):171-6) activated with lipopolysaccharide (LPS). Table 4 summarises the results comparing the activity of Compounds A and B for inhibition of TNF-α production to their effects on general cell metabolism measured using WST-1 reduction, DNA synthesis and protein synthesis assays for THP-1 cells. […] For comparison, the effects of Compounds A and B on A549 lung epithelial carcinoma cells (Leiber et al, Int. J. Cancer, 1976, 17(1)-62-70) were also measured and the data is also included in Table 4.

The test system of data set [2] is THP-1 cells. Nature of the data set: DNA synthesis, [14C]-thymidine uptake, THP-1 cells. It counts as cell-based, human. Particulars: 48 hours.
From the text: as §1

Data set [3] concerns A549 cells. Kind of data set: Protein synthesis, [14C]-leucine uptake, A549 cells. The data set is classed as cell-based, human. Particulars: Homo sapiens, A549, 72 h.
From the text: as §1

Data set [4] concerns THP-1 cells. Nature of the data set: Acute DNA synthesis inhibition, [14C] thymidine incorporation, THP-1 cells. It counts as cell-based, human. Particulars: 1 hour pretreatment + 2 hours label. (Dividing cells build labelled thymidine or BrdU into new DNA.)
The next data set concerns K562. Kind of data set: Cytostatic activity, relative cell number by YOYO-1 DNA dye. The data set is classed as cell-based. As to conditions: Homo sapiens, 72 h; K562, leukemia; read-out: GI50 (3 day cultures). The procedure:
(§2) (b) Compound A was assessed for cytotoxic and cytostatic activity against a panel of cell lines derived from a variety of human tumour types in addition to THP-1 and A549 cells (Table 5). These included K562 leukemic cells (Lozzio and Lozzio, 1975, Blood 45:321-34), PC3 prostate tumour cells (Kaighn et al., 1979, Invest. Urol. 17:16-23) and SF268 glioblastoma cells (Westphal et al, 1985, Biochem. Biophys. Res. Commun., 132:284-9). […] However, the cytotoxic potency of Compound A increased dramatically after 6 days of culture for the K562, A549 and SF268 cells.

Another data set concerns PC3. The data set is described as above. It counts as cell-based. As to conditions: Homo sapiens, PC-3, 72 h; PC3, prostate; read-out: GI50 (3 day cultures). The procedure:
as §2

The subject of another data set is SF268. The data set is described as above. Particulars: Homo sapiens, SF-268, 72 h; SF268, brain; read-out: GI50 (3 day cultures). It counts as cell-based. The procedure: as §2
Data set [5] relates to A549 cells. Nature of the data set: Cell death as loss of membrane integrity, YOYO-1 uptake. It counts as cell-based. As to conditions: Homo sapiens, 72 h; A549 cells, 3 days, YOYO-1 uptake; read-out: LC50 (the source's name). The text has this:
(§3) (a) Table 8 compares the cytostatic and cytotoxic effects of Compound A to three previously identified 1H-cyclopenta[b]benzofuran lignans that lack the dioxanyloxy group at the C6-position. The reference compounds are: Rocaglaol (Reference Compound 1) (Ohse et al., J Nat Prod, 1996, 59(7):650-52); 4′-Demethoxy-3′,4′-methylenedioxyrocaglaol (Reference Compound 2) and Methyl 4′-demethoxy-3′,4′-methylenedioxyrocaglate (Reference Compound 3) (Lee et al., Chem Biol Interact, 1998, 115(3):215-28).

The test system of data set [6] is THP-1 cells. The data set is described as above. It counts as cell-based. As to conditions: Homo sapiens, 72 h; THP-1 cells, 3 days, YOYO-1 uptake; read-out: LC50 (the source's name).
From the text: as §3

Data set [7] has as its system HL60 human promyelocytic leukemic cells. Kind of data set: Monocytic differentiation, CD14 surface antigen expression by flow cytometry. It counts as cell-based. As to conditions: 4 days. As for the experimental part: (§4) This is a morphology highly characteristic of mature macrophages and similar morphological effects were observed when the cells were treated with other known inducers of macrophage differentiation including interferon-γ (IFNγ) or phorbol 12-myristate 13-acetate (PMA). To investigate this further the effects of Compound A on HL60 human promyelocytic leukemic cells (Collins, et al, Nature, 1977, 270:347-9) were examined (Table 11). This widely used cell line is well characterised as a model of human myelomonocytic differentiation (Collins, Blood, 1987, 70(5):1233-44). In this experiment monocytic differentiation was quantitated by measuring CD14 surface antigen expression by flow cytometric analysis CD14, all LPS-binding protein, is expressed on the surface of cells of the myelomonocytic lineage and is normally expressed at very low levels in undifferentiated HL60 cells (Ferrero et al., Blood, 1983, 61(1):171-9).
(A flow cytometer gives signals particle by particle.)

Data set [8] relates to THP-1 monocytic leukemia cells. Kind of data set: Differentiation of THP-1 leukemic cells, morphology by phase contrast microscopy. Particulars: THP-1, 10 nM, prolonged exposure (4 days). The data set is classed as cell-based, human. The procedure: THP-1 cells were cultured for 4 days in the presence or absence of 10 nM Compound A as indicated. Where shown cells were also treated with IFNγ (100 ng/ml) (3 days) or with PMA (0.1 μM) (4 days) in the presence or absence of Compound A. Images are of cells visualised by phase contrast microscopy (magnification×200).
as §4

Data set [9] in a line: Body weight in the mouse xenograft tumour model. The data set is classed as in vivo. As for the experimental part:
The ability of Compound A to inhibit growth of human tumour cells in vivo was assessed using male athymic mice injected subcutaneously in the dorsal flank region with 2×10^6 PC3 human prostate tumour cells. Compound A administration (3 mg/kg) by intraperitoneal injection commenced after eight days once the PC3 tumour was palpable and continued three times a week until 29 days after the initial inoculation of the tumour cells. At this time all mice were killed and tumours excised and weighed.

As a reminder, the IC50 is the point on the concentration scale where inhibition reaches its midpoint. The GI50 is the concentration at which growth is held to half of that of the control. For `COC(=O)[C@H]1[C@@H](O)[C@@]2(O)c3c(OC)cc(OC4OC(C(O)CO)COC4OC)cc3O[C@@]2(c2ccc(OC)cc2)[C@@H]1c1ccccc1` (single isomer, unassigned) [Compound A], the IC50 in the data set on THP-1 cells [1] is 60 nM; in the data set with THP-1 cells [2], 15 nM; with A549 cells [3], 20 nM; in the data set with THP-1 cells [4] (Homo sapiens, THP-1, THP-1 cells), about 70 nM; in the data set with THP-1 cells [4] (THP-1 cells), 72 nM. The GI50 was found to be 1 nM in the data set with K562, 5 nM in the data set on PC3 and 3 nM with SF268. Further, the CC50 with A549 cells [5] was found to be 514 nM; with THP-1 cells [6], 15 nM. Further, the “% cells expressing CD14” value in data set [7] (HL60, 5 nM) was 3.3%; in [7] (HL60, 10 nM), 5.7%; in [7] (HL60, 25 nM), 46.0%; in data set [7] (HL60, 50 nM) it was 43.0%. The “CD14 expression in viable HL60 cells” value in [7] (doses greater than 10 nM) is “significantly enhanced CD14 expression”. Further, the “morphology (macrophage differentiation)” value in [8] was “accumulation of cells that adhered to the plastic and exhibited numerous pseudopodia”. Moreover, the body weight entry in data set [9] (3 mg/kg intraperitoneal three times a week, vs control) is listed as “unaffected”. Moreover, the “decrease in mean body weight” value in data set [9] (over the duration of the experiment, similar in control group) is listed as about 12%.
